Ends that are not written are not given here.
How the values were obtained:
[1] = test system: anti-Factor Xa Activity of the Low Molecular Weight Heparin Lovenox ®; assay: Anti-Factor Xa assay (Stachrom Heparin kit): neutralization of Lovenox in citrate or plasma in vitro; format: biochemical, human; settings: for Lovenox ® Neutralized: Lovenox 0.7 U/ml; for anti-LMWH effect in citrate compared with plasma: Table 2A; for Lovenox/LMWH neutralization compared with protamine: low concentrations, in the presence of plasma
Procedure, shortened: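 Chromogenic anti-Factor Xa kit run with UFH, enoxaparin (Lovenox) or danaparoid (Orgaran) in 0.32% citrate or citrated plasma from three volunteers. Heparin/ATIII complex formed, peptide added, then Factor Xa and dye substrate; absorbance at 405 nm, inversely proportional to remaining anti-Factor Xa activity.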

[2] = test system: unfractionated heparin (thrombin-induced clot formation); assay: Thrombin neutralization assay: clotting time of citrated plasma in the presence of unfractionated heparin; format: biochemical, human; settings: UFH 0.5 IU/ml
Description: It was determined whether heparin-binding peptides of the invention can neutralize unfractionated heparin using the thrombin neutralization assay. The six peptides that were synthesized and used in this Example are: (ARKKAAKA)3VLVLVLVL (SEQ ID NO:5); (ARKKAAKA)(A16)(ARKKAAKA) (SEQ ID NO:30); (ARKKAAKA)4 (SEQ ID NO:31); (AKKARA)6 (SEQ ID NO:32); (ARKKAAKA)3(ARKKCAKA) (SEQ ID NO:33); and cyclized C(ARKKAAKA)4C (SEQ ID NO:34); Citrated plasma was pipetted into a glass tube. Thrombin was added, the tube was manually rotated, and clotting time was determined by observation of clot formation. Normal clotting time is 19-22 seconds.
As a control, to assess the effect of heparin on clot formation, unfractionated heparin was added to the plasma at 0.5 IU anti-thrombin activity/ml and then thrombin was added. Clotting time in the presence of heparin alone was greater than 3 minutes.
To test the effect of peptides, heparin and six peptides at the concentrations indicated in Table 4 were added to the plasma, the mixture was allowed to stand at room temperature for 1 minute, and thrombin was added. The time for the clot to form is indicated. Experiments were performed using plasma from three volunteers—A, B, and C.

[3] = test system: platelets; assay: Platelet aggregation with aggregation-inducing agents; format: cell-based, human; settings: 12 μg/ml; Lovenox 0.5 U/ml; collagen, ADP, ristocetin, epinephrine, SFFLRN, A23187
Description: Plasma from six volunteers was tested with various aggregation inducing agents, at several concentrations of each agent, and with six different peptides of the invention. The effect of heparin-binding peptides of the invention on platelet aggregation was determined using standard procedures as previously described. The six peptides which were synthesized and tested were: (ARKKAAKA)4 (SEQ ID NO:31), ARKKAAKA(A16)ARKKAAKA (SEQ ID NO:30), (ARKKAAKA)3ARKKCAKA (SEQ ID NO:33), (ARKKAAKA)3VLVLVLVL (SEQ ID NO:5), C(ARKKAAKA)4C (SEQ ID NO:34), and (AKKARA)6 (SEQ ID NO:32).
The aggregation-inducing agents tested were: collagen, adenosine diphosphate (ADP), ristocetin, epinephrine, the thrombin receptor peptide SFFLRN, and calcium ionophore A23187. Platelets were subjected to protamine, or to SEQ ID NOS:31, 33, 30, 5, 34, or 32 at 12 μg/ml, and Lovenox® at 0.5 U/ml. Platelet aggregation in response to agonists was monitored and percent aggregation was determined over a five minute interval.
The agonist was added after equilibration of the platelets for one minute.

[4] = test system: Lovenox ® Activity in Blood from Patients Treated with Lovenox ®; assay: Neutralizing Lovenox activity in blood from patients treated with Lovenox (anti-Factor Xa assay); format: biochemical, human; settings: for Lovenox ® Neutralized: Peptide 12 μg/ml
Procedure, shortened: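 Blood came from consenting volunteers already on Lovenox® therapy. Neutralizing peptides were tested as a dose response from 1–60 μg/ml. Each point is mean ± SD of triplicate analyses on one patient's blood sample.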

[5] = 0.30 μg peptide/0.1 ml, plasma A
[6] = 0.30 μg peptide/0.1 ml, plasma B
[7] = 0.35 μg peptide/0.1 ml, plasma B
[8] = 0.35 μg peptide/0.1 ml, plasma C
[9] = 0.40 μg peptide/0.1 ml, plasma A
[10] = 0.40 μg peptide/0.1 ml, plasma B
[11] = 0.40 μg peptide/0.1 ml, plasma C
[12] = 0.50 μg peptide/0.1 ml, plasma A
[13] = 0.50 μg peptide/0.1 ml, plasma B
[14] = 0.50 μg peptide/0.1 ml, plasma C
[15] = blood of Lovenox-treated Patient Number 1
[16] = blood of Lovenox-treated Patient Number 2
[17] = blood of Lovenox-treated Patient Number 3
[18] = blood of Lovenox-treated Patient Number 4
[19] = blood of Lovenox-treated Patient Number 5
[20] = blood of Lovenox-treated Patient Number 8
[21] = blood of Lovenox-treated Patient Number 9
[22] = blood of Lovenox-treated Patient Number 10
[23] = blood of Lovenox-treated Patient Number 11

ARKKAAKAARKKAAKAARKKAAKAARKKAAKA [(ARKKAAKA)4]
Lovenox ® Neutralized ([1]; 1 μg/ml Peptide, A Plasma): 0.020 ± 0.016 U/ml | Lovenox ® Neutralized ([1]; 1 μg/ml Peptide, B Plasma): 0.031 ± 0.015 U/ml | Lovenox ® Neutralized ([1]; 1 μg/ml Peptide, C Plasma): 0.059 ± 0.029 U/ml | Lovenox ® Neutralized ([1]; 1 μg/ml Peptide, Citrate): 0.141 ± 0.051 U/ml | Lovenox ® Neutralized ([1]; 6 μg/ml Peptide, A Plasma): 0.184 ± 0.038 U/ml | Lovenox ® Neutralized ([1]; 6 μg/ml Peptide, B Plasma): 0.178 ± 0.022 U/ml | Lovenox ® Neutralized ([1]; 6 μg/ml Peptide, C Plasma): 0.252 ± 0.024 U/ml | Lovenox ® Neutralized ([1]; 6 μg/ml Peptide, Citrate): 0.376 ± 0.019 U/ml | Lovenox ® Neutralized ([1]; 12 μg/ml Peptide, A Plasma): 0.287 ± 0.058 U/ml | Lovenox ® Neutralized ([1]; 12 μg/ml Peptide, B Plasma): 0.328 ± 0.041 U/ml | Lovenox ® Neutralized ([1]; 12 μg/ml Peptide, C Plasma): 0.325 ± 0.030 U/ml | Lovenox ® Neutralized ([1]; 12 μg/ml Peptide, Citrate): 0.473 ± 0.039 U/ml | Lovenox ® Neutralized ([1]; 60 μg/ml Peptide, A Plasma): 0.343 ± 0.090 U/ml | Lovenox ® Neutralized ([1]; 60 μg/ml Peptide, B Plasma): 0.488 ± 0.012 U/ml | Lovenox ® Neutralized ([1]; 60 μg/ml Peptide, C Plasma): 0.495 ± 0.032 U/ml | Lovenox ® Neutralized ([1]; 60 μg/ml Peptide, Citrate): 0.515 ± 0.016 U/ml | Lovenox ® Neutralized ([1]; 120 μg/ml Peptide, A Plasma): 0.601 ± 0.052 U/ml | Lovenox ® Neutralized ([1]; 120 μg/ml Peptide, B Plasma): 0.541 ± 0.065 U/ml | Lovenox ® Neutralized ([1]; 120 μg/ml Peptide, C Plasma): 0.570 ± 0.029 U/ml | Lovenox ® Neutralized ([1]; 120 μg/ml Peptide, Citrate): 0.509 ± 0.079 U/ml | anti-LMWH effect in citrate compared with plasma [1]: greater anti-LMWH effect in citrate than in plasma | Lovenox/LMWH neutralization compared with protamine [1]: more effective than protamine | Time for clot formation [2, 5]: 56.33 ± 4.92 s | Time for clot formation [2, 6]: 53.33 ± 1.25 s | Time for clot formation ([2]; 0.35 μg peptide/0.1 ml, plasma A): 22.33 ± 0.47 s | Time for clot formation [2, 7]: 39.00 ± 5.35 s | Time for clot formation [2, 8]: 32.67 ± 0.47 s | Time for clot formation [2, 9]: 18.67 ± 0.94 s | Time for clot formation [2, 10]: 26.30 ± 1.25 s | Time for clot formation [2, 11]: 22.67 ± 1.25 s | Time for clot formation [2, 12]: 19.67 ± 1.25 s | Time for clot formation [2, 13]: 24.00 ± 0.82 s | Time for clot formation [2, 14]: 20.67 ± 0.94 s | effect on platelet aggregation [3]: no significant inhibition or enhancement of aggregation | Lovenox ® Neutralized [4, 15]: 0.116 U/ml | Lovenox ® Neutralized [4, 16]: 0.073 U/ml | Lovenox ® Neutralized [4, 17]: 0.105 U/ml | Lovenox ® Neutralized [4, 18]: 0.225 U/ml | Lovenox ® Neutralized [4, 19]: 0.194 U/ml | Lovenox ® Neutralized [4, 20]: 0.289 U/ml | Lovenox ® Neutralized [4, 21]: 0.283 U/ml | Lovenox ® Neutralized [4, 22]: 0.194 U/ml | Lovenox ® Neutralized [4, 23]: 0.135 U/ml

ARKKAAKAARKKAAKAARKKAAKAVLVLVLVL [(ARKKAAKA)3VLVLVLVL]
rank as neutralizing agent of Lovenox [1]: most effective neutralizing agents | Lovenox ® Neutralized ([1]; 1 μg/ml Peptide, A Plasma): 0.055 ± 0.041 U/ml | Lovenox ® Neutralized ([1]; 1 μg/ml Peptide, B Plasma): 0.035 ± 0.009 U/ml | Lovenox ® Neutralized ([1]; 1 μg/ml Peptide, C Plasma): 0.058 ± 0.054 U/ml | Lovenox ® Neutralized ([1]; 1 μg/ml Peptide, Citrate): 0.082 ± 0.027 U/ml | Lovenox ® Neutralized ([1]; 6 μg/ml Peptide, A Plasma): 0.292 ± 0.047 U/ml | Lovenox ® Neutralized ([1]; 6 μg/ml Peptide, B Plasma): 0.189 ± 0.066 U/ml | Lovenox ® Neutralized ([1]; 6 μg/ml Peptide, C Plasma): 0.202 ± 0.042 U/ml | Lovenox ® Neutralized ([1]; 6 μg/ml Peptide, Citrate): 0.288 ± 0.045 U/ml | Lovenox ® Neutralized ([1]; 12 μg/ml Peptide, A Plasma): 0.441 ± 0.058 U/ml | Lovenox ® Neutralized ([1]; 12 μg/ml Peptide, B Plasma): 0.376 ± 0.001 U/ml | Lovenox ® Neutralized ([1]; 12 μg/ml Peptide, C Plasma): 0.371 ± 0.031 U/ml | Lovenox ® Neutralized ([1]; 12 μg/ml Peptide, Citrate): 0.412 ± 0.035 U/ml | anti-Factor Xa activity of LMWH neutralized ([1]; 12 μg/ml, plasma): about 0.4 U/ml | Lovenox ® Neutralized ([1]; 60 μg/ml Peptide, A Plasma): 0.588 ± 0.027 U/ml | Lovenox ® Neutralized ([1]; 60 μg/ml Peptide, B Plasma): 0.561 ± 0.035 U/ml | Lovenox ® Neutralized ([1]; 60 μg/ml Peptide, C Plasma): 0.532 ± 0.023 U/ml | Lovenox ® Neutralized ([1]; 60 μg/ml Peptide, Citrate): 0.441 ± 0.010 U/ml | Lovenox ® Neutralized ([1]; 120 μg/ml Peptide, A Plasma): 0.575 ± 0.057 U/ml | Lovenox ® Neutralized ([1]; 120 μg/ml Peptide, B Plasma): 0.480 ± 0.035 U/ml | Lovenox ® Neutralized ([1]; 120 μg/ml Peptide, C Plasma): 0.485 ± 0.022 U/ml | Lovenox ® Neutralized ([1]; 120 μg/ml Peptide, Citrate): 0.463 ± 0.029 U/ml | anti-LMWH effect in citrate compared with plasma [1]: neutralize the same amount of Lovenox® in citrate and plasma | Lovenox/LMWH neutralization compared with protamine [1]: more effective than protamine | Time for clot formation [2, 5]: 37.00 ± 2.16 s | Time for clot formation [2, 6]: 40.00 ± 1.63 s | Time for clot formation [2, 7]: 28.33 ± 1.70 s | Time for clot formation [2, 8]: 45.33 ± 2.05 s | Time for clot formation [2, 9]: 20.00 ± 0.82 s | Time for clot formation [2, 10]: 26.67 ± 1.25 s | Time for clot formation [2, 11]: 32.33 ± 2.05 s | Time for clot formation [2, 12]: 17.67 ± 1.25 s | Time for clot formation [2, 13]: 23.67 ± 0.47 s | Time for clot formation [2, 14]: 25.67 ± 0.47 s | effect on platelet aggregation [3]: no significant inhibition or enhancement of aggregation | effectiveness in neutralizing Lovenox in blood of patients [4]: most consistently effective | Lovenox ® Neutralized [4, 15]: 0.213 U/ml | Lovenox ® Neutralized [4, 16]: 0.252 U/ml | Lovenox ® Neutralized [4, 17]: 0.302 U/ml | Lovenox ® Neutralized [4, 18]: 0.439 U/ml | Lovenox ® Neutralized [4, 19]: 0.265 U/ml | Lovenox ® Neutralized [4, 20]: 0.268 U/ml | Lovenox ® Neutralized [4, 21]: 0.478 U/ml | Lovenox ® Neutralized [4, 22]: 0.436 U/ml | Lovenox ® Neutralized [4, 23]: 0.398 U/ml
